Measured values from patent US20130273564A1, “DISPERSION INJECTION METHODS FOR BIOSENSING” (priority 2010, published 2013).

Test system: partially denatured carbonic anhydrase II
Conditions: sigmoidal TDi, degraded surface, 10° C., global two-site interaction model
Method: A second sensing surface remained uncoated to provide an accurate reference surface. […] FCI was performed by separately injecting 50 μL of each dilution at a rate of 50 μL min^−1. EDTA was excluded from the buffer to maintain the binding activity of the Zn-dependent carbonic anhydrase 11.
Two separate sigmoidal TDi assays were performed. The first sigmoidal TDi assay (FIG. 8B) was performed by injecting 250 μL of analyte sample at a flow rate of 100 μL min^−1 using a dispersion tube having a total volume capacity of 512 μL and a diameter of 0.50 mm. […] The second sigmoidal TDi assay (FIG. 8C) was performed by injecting 250 μL of analyte sample at a flow rate of 50 μL min^−1 using a dispersion tube having a total volume capacity of 512 μL and a diameter of 0.50 mm. […] The carbonic anhydrase II-coated surface was permitted to degrade at 25° C. for several days before performing the sigmoid TDi analysis. The second TDi assay was performed at 10° C. to preserve weak non-specific binding in order to mimic a realistic complex data set.

NS(=O)(=O)c1cc(C(=O)O)c(NCc2ccco2)cc1Cl [furosemide]
D: 4.49(1)×10^−10 m^2s^−1
